The record followed here is the OPERA property sets (Mansouri et al. 2018).

By logP is commonly meant a log measure of how a compound divides between an organic and an aqueous phase. Consider `O=C(NCCNCC(O)COc1ccc(-c2ncc[nH]2)cc1)Nc1ccccc1` (stereo unspecified), for which the log partition coefficient (logP) was 1.19. Next, `NC1CCc2ccccc2C1` (stereo unspecified): 2.08; `CC(=O)C(C)CN1CCCCC1` (stereo unspecified): 1.28. `Oc1ccc(C2(O)CCN(CCCSc3ccc(F)cc3)CC2)cc1` returned a logP of 4.17. `CC(C)C(=O)O` displayed a logP of 0.94.

For the compound `CCCN1C(=O)SC(=Cc2ccc([N+](=O)[O-])o2)C1=O`, the logP came to 2.4. Compound `CC(C(N)=O)n1nnc2ccccc21` (stereo unspecified) yielded a logP of 0.35. `Clc1ccc(-c2ccccc2Cl)cc1` showed a logP of 5.09. For the compound `Cc1cccc(C)c1NC(=O)CCCCN`, the logP amounted to 1.02. `O=C(COc1ccc(OCCNCC(O)COc2ccccc2)cc1)NCCCO` (stereo unspecified): the logP was 0.5. Next, `CC(=O)OC1CC2C(CCC3CC(OC4CC(O)C(OC5CC(O)C(OC6CC(O)C(O)C(C)O6)C(C)O5)C(C)O4)CCC32C)C2(O)CCC(C3=CC(=O)OC3)C12C` (stereo unspecified): 2.29; `OC(CN1CCCC1)(c1ccc(F)cc1)c1ccc(-c2ccncc2)cc1` (stereo unspecified): 3.84; `Cc1cccc(C)c1NC(=O)CCC(C)N` (stereo unspecified): 1.08. The figure for `C=C1C(=O)OC2CC3(C)CCCC(=C)C3CC12` (stereo unspecified) is 3.42; for `N[C@@H](Cc1ccc(O)c(O)c1)C(=O)O` it is -2.39; for `Cc1cn([C@H]2C=C[C@@H](CO)O2)c(=O)[nH]c1=O` it is -0.72. With `CCCCCCCC1CC(C(=O)Nc2c(C(C)C)cccc2C(C)C)C(=O)O1` (stereo unspecified), the lipophilicity (logP) is 4.72. With `CCCCCCCc1ccncc1`, the logP amounted to 5. `CC1=CC(=O)C(C(C)C)=CC1=O` showed a logP of 2.2. `CCOC(=O)CC[C@H](NC(=O)c1ccc(N(C)Cc2cnc3nc(N)nc(N)c3n2)cc1)C(=O)OCC` had a logP of 0.98. Compound `Oc1cc2ccccc2cc1O` gave a logP of 2.24.

In the case of `O=C(O)Cc1ccc2c(c1)C(=O)c1ccccc1CS2`, the logP is 2.97. Turning to `CCC1(c2ccccc2)C(=O)NC(=O)N=C1OC(C)C` (stereo unspecified), the lipophilicity (logP) stood at 2.22. Consider `Fc1ccc(F)c(F)c1`, for which the lipophilicity (logP) was found to be 2.52. Regarding `CCOc1ccc(Cc2cnc(N)nc2N)cc1OC`, the log partition coefficient (logP) was 1.34.

As to `O=C(O)c1cc(-c2ccc(F)cc2F)ccc1O`, the logP is 4.44. `CCC(C(=O)OCc1ccccc1)C(COC(=O)c1cccnc1)Cc1cncn1C` (stereo unspecified) displayed a logP of 3.05. The compound `C=C(C)C(=O)OCC(C)(O)COc1cccc2ccccc12` (stereo unspecified) came in with a lipophilicity (logP) of 3.77. `CC(C(=O)NCC(O)CO)n1ccnc1[N+](=O)[O-]` (stereo unspecified) yielded a logP of -1.64. The compound `CC(=O)C(C(=O)ON=C(C)C12CC3CC(CC(C3)C1)C2)c1ccccc1` (stereo unspecified) came in with a logP of 4.64.

Compound `CCN(CCO)Cc1cccc(COc2ccccc2)c1` showed a log partition coefficient (logP) of 3.04. `C=CC(=O)OCCOCCOCCOC(=O)C=C` gave a lipophilicity (logP) of 0.96.

As for `O=c1ccc2ccc3occc3c2o1`, the log partition coefficient (logP) worked out at 2.08. The figure for `O=C(CN1CCCC1)NCc1ccccc1` is 1.69; for `C=C(C)C(=O)OCC(F)(F)F` it is 1.56. The figure for `CC(=O)Oc1cccc(OC(C)=O)c1C(N)=O` is -0.62; for `Cc1cn([C@H]2C[C@H](O)[C@@H](CO)O2)c(=O)[nH]c1=O` it is -0.93. Next, `COc1cc(C)c(/C=C/C(C)=C/C=C/C(C)=C/C(=O)O)c(C)c1C`: 6.4; `C=C1C(=O)OC2CC3(C)CCCC(C)C3=CC12` (stereo unspecified): 3.38; `Cc1cc(Br)cc(C(=O)NC(C)C)c1O`: 4.19. Consider `O=c1nc(-c2ccccc2)c2ccccc2[nH]1`, for which the lipophilicity (logP) came to 1.91. Next, `CCCOC(=O)c1ccccc1Cl`: 3.45; `Oc1ccc2[nH]ccc2c1`: 1.11. Take `Cc1cc(C)cc(C2C(=O)c3ccccc3C2=O)c1`: the logP is 4.02. `CSc1cnc2ccccc2n1` yielded a logP of 2.79. The figure for `Cc1cc(=O)n2c(n1)CCCC2C` (stereo unspecified) is 0.67. The figure for `Cc1cccc(C)c1NC(=O)CCCN` is 0.71; for `CON=C(C(=O)N[C@@H]1C(=O)N2C(C(=O)O)=C(COC(N)=O)CS[C@H]12)c1ccco1` it is -0.16. `CC(C)C(=O)OCC1OC(n2cc(I)c(=O)[nH]c2=O)C1O` (stereo unspecified) showed a logP of 0.83. Next, `Clc1ccc(OCc2cccc(CN3CCOCC3)c2)cc1`: 3.52; `CCN1CC(C(O)C(CC2CCCCC2)NC(=O)C(Cc2cnc[nH]2)NC(=O)C(Cc2ccc(OC)cc2)NC(=O)N2CCOCC2)OC1=O` (stereo unspecified): 2.11. Consider `CNC(C)C(OC)c1ccccc1` (stereo unspecified), for which the log partition coefficient (logP) was 2.05.

`O=C1CN=C(c2ccccc2)c2cc(Br)ccc2N1` yielded a logP of 3.11.

Compound `CC(=O)O[C@]1(C(=O)CO)CC[C@H]2[C@@H]3CCC4=CC(=O)CC[C@]4(C)[C@H]3[C@@H](O)C[C@@]21C` displayed a lipophilicity (logP) of 2.3. For `CCNC(=O)c1cc(Br)cc(C)c1O`, the logP worked out at 3.61.

`CC(O)c1ccc2ccccc2c1` (stereo unspecified) returned a logP of 2.68. In turn, `Nc1ccn(C2OC(CCl)C(O)C2O)c(=O)n1` (stereo unspecified) came in with a logP of -1.05. Compound `CC(=O)OCCN1C(=O)C(OC(C)=O)N=C(c2ccccc2)c2cc(Cl)ccc21` (stereo unspecified) gave a logP of 2.74.

`Cc1cc2occc2c2oc(=O)ccc12`: the logP turned out to be 2.41.

Consider `Nc1nc(N)c2nc(-c3ccc(O)cc3)c(N)nc2n1`, for which the logP was determined as 0.92.

Compound `ClC(Cl)=C(c1ccc(Cl)cc1)c1ccc(Cl)cc1` yielded a lipophilicity (logP) of 6.51.

With `Cc1cccc(C)c1OC(=O)c1ccc(N)cc1O`, the logP stood at 3.88. For the compound `N#CSO`, the logP amounted to 0.32. In the case of `O=[N+]([O-])c1ccc(Cc2ccncc2)cc1`, the logP is 2.88.

Consider `OC1(c2cc(Cl)ccc2Cl)CCCCC1n1cncn1` (stereo unspecified), for which the logP was 3.24. `Cc1cnc2n(c1=O)CCCC2C` (stereo unspecified): the logP is 0.69. In turn, `OC(CCN1CCCCC1)(c1ccccc1)C1CC2C=CC1C2` (stereo unspecified) came in with a lipophilicity (logP) of 4.25. Turning to `O=C1CCC(c2ccccc2)CC1`, the logP was found to be 2.3.

Turning to `Clc1cccc(Br)c1N=C1NCCN1`, the log partition coefficient (logP) was 1.73. Regarding `COc1cc2nc(N3CCN(C(=O)C(C)OC)CC3)nc(N)c2cc1OC` (stereo unspecified), the logP was determined as 1.14. As to `O=C(c1ccc(F)cc1)c1ccc2n1CCC2C(=O)O` (stereo unspecified), the logP turned out to be 2.82. The figure for `O=S(=O)(O)c1cccc2c(O)cccc12` is -0.17; for `O=C(Cn1ccnc1[N+](=O)[O-])N(CCO)CCO` it is -1.64. The compound `CCCCCCC(C)(C)c1cc(O)c2c(c1)OC(C)(C)C1CC=C(C)CC21` (stereo unspecified) gave a log partition coefficient (logP) of 9.96.

Regarding `COC(=O)C=COc1ccccc1Cl`, the logP came to 3.02. `CCN(CC)C(C)C(=O)Nc1c(C)cccc1C` (stereo unspecified) displayed a logP of 2.73. With `CC(C)(C)c1cccc(C2C(=O)c3ccccc3C2=O)c1`, the logP came out at 4.88.

`OC(CNCCc1ccncc1)COc1ccc(-c2ncc(-c3cccs3)[nH]2)cc1` (stereo unspecified) had a log partition coefficient (logP) of 2.25. In the case of `CC(=O)OCC1SC(n2ccnc2[N+](=O)[O-])C(OC(C)=O)C(OC(C)=O)C1OC(C)=O` (stereo unspecified), the lipophilicity (logP) was determined as 0.63.

The compound `c1ccc(CC2=NCCN2)cc1` showed a lipophilicity (logP) of 2.65. For the compound `CN(C)N=Nc1ccc(C(=O)O)cc1`, the logP is 2.33. Consider `Cc1cc(N=O)ccc1O`, for which the logP worked out at 1.71. `CC(=O)OCCCN1C(=O)C(OC(C)=O)N=C(c2ccccc2)c2cc(Cl)ccc21` (stereo unspecified): the logP was 3.08. As for `CNC(=S)NCCSCc1cncn1C`, the lipophilicity (logP) came out at 0.32. Take `COc1ccc(C2C(=O)c3ccccc3C2=O)cc1`: the logP was found to be 2.88.

`Clc1ccc(-c2ccccc2)cc1Cl` came in with a logP of 5.29. In turn, `CCCCc1ccncc1` displayed a logP of 3.13.

Compound `CCCCCCCCc1ccccc1` displayed a logP of 6.3. Take `CCC(=O)Oc1c(OC)c(OC)c(OC(=O)CC)c2ccccc12`: the lipophilicity (logP) turned out to be 3.44. As for `CCn1c(=O)n(C)c(=O)c2[nH]cnc21`, the logP is 0.52.

As to `CC(C)c1cc(C(C)C)cc(C2C(=O)c3ccccc3C2=O)c1`, the logP is 5.96. For the compound `CNC(=O)COc1cccc(OCC(O)CNC(C)C)c1` (stereo unspecified), the log partition coefficient (logP) amounted to 0.35. Regarding `CCN(CC)CCNC(=O)c1cc(Br)c(N)cc1OC`, the lipophilicity (logP) was found to be 2.83. For the compound `CCCCCCCCCCC(C)(C)c1ccc(C2CCCC(O)C2)c(O)c1` (stereo unspecified), the lipophilicity (logP) was 8.42. In turn, `CCC(C)CC` had a logP of 3.6. With `COc1cccc2c1C(=O)c1c(O)c3c(c(O)c1C2=O)C[C@@](O)(C(C)=O)C[C@@H]3O[C@H]1C[C@H](N)[C@H](O)[C@H](C)O1`, the log partition coefficient (logP) is 1.83. Turning to `CCN(CC)CCNC(=O)c1ccc(N)cc1OC`, the log partition coefficient (logP) came out at 1.4. Next, `O=C(O)c1ccc(Cl)cc1Nc1cccc(Br)c1`: 5.16; `O=C(O)CN1C(=O)C=CC1=O`: -0.14; `CC(C(=O)NCCO)n1ccnc1[N+](=O)[O-]` (stereo unspecified): -1.16. Next, `OCc1cccc2ccccc12`: 2.37; `CC1c2nc3ccccc3c(=O)n2CN1CCc1ccccc1` (stereo unspecified): 1.8. The compound `Cc1ccc(Br)cc1N=C1NCCN1` came in with a lipophilicity (logP) of 1.94. In turn, `CCCCc1cc(OC)c(CC(C)N)cc1OC` (stereo unspecified) came in with a logP of 4. Take `COc1cccc2c1C(=O)c1c(O)c3c(c(O)c1C2=O)CC(O)(C(=O)CO)CC3OC1CC(N2CCOCC2)C(O)C(C)O1` (stereo unspecified): the logP was 1.73. `CCCCCCCCC=CCCCCCCCC(=O)O` gave a lipophilicity (logP) of 7.64.
